# Laboratory results as given in ChEMBL document CHEMBL1201862, “PubChem BioAssay data set” (2004).
#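 Briefly, cells in 96-well plates were exposed to five compound concentrations for 48 h, and endpoints were estimated by linear interpolation. Abbreviation: GI50, concentration required for 50% inhibition of growth.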 The source made the active and inactive calls. Cut-off read from the data, not from the text of the source: active = GI50 up to about 1.1 µM and inactive = higher.
# Experiments:
# Assay in all cases: DTP human tumour cell line panel, 48 h
# [1] = test system: 786-0
# [2] = test system: A549
# [3] = test system: ACHN
# [4] = test system: CCRF-CEM
# [5] = test system: COLO 205
# [6] = test system: DLD-1
# [7] = test system: DMS-273
# [8] = test system: EKVX
# [9] = test system: HCC 2998
# [10] = test system: HCT-116
# [11] = test system: HCT-15
# [12] = test system: HL-60
# [13] = test system: HOP-62
# [14] = test system: HOP-92
# [15] = test system: HT-29
# [16] = test system: IGROV-1
# [17] = test system: K562
# [18] = test system: KM-20L2
# [19] = test system: KM12
# [20] = test system: LOX IMVI
# [21] = test system: LXFL 529
# [22] = test system: M14
# [23] = test system: M19-MEL
# [24] = test system: MOLT-4
# [25] = test system: Malme-3M
# [26] = test system: NCI-H226
# [27] = test system: NCI-H23
# [28] = test system: NCI-H460
# [29] = test system: NCI-H522
# [30] = test system: OVCAR-3
# [31] = test system: OVCAR-4
# [32] = test system: OVCAR-8
# [33] = test system: RXF 393
# [34] = test system: SF-268
# [35] = test system: SF-295
# [36] = test system: SF-539
# [37] = test system: SK-MEL-28
# [38] = test system: SK-MEL-2
# [39] = test system: SK-MEL-5
# [40] = test system: SK-OV-3
# [41] = test system: SN12C
# [42] = test system: SNB-19
# [43] = test system: SNB-75
# [44] = test system: SNB-78
# [45] = test system: SR
# [46] = test system: SW-620
# [47] = test system: TK-10
# [48] = test system: U-251
# [49] = test system: UACC-257
# [50] = test system: UACC-62
# [51] = test system: UO-31
# [52] = test system: XF498
# [53] = test system: CAKI-1
# [54] = test system: OVCAR-5
# [55] = test system: DMS-114
# [56] = test system: RPMI-8226
# [57] = test system: A498
structure (smiles),measurement,setting,value
CCCC(C)n1c(C)nc2c1C(=O)c1ccccc1C2=O (centres undefined),GI50,[1],19.9 µM (inactive)
same,GI50,[2],21 µM (inactive)
same,GI50,[3],27.8 µM (inactive)
same,GI50,[4],30.3 µM (inactive)
same,GI50,[5],23.3 µM (inactive)
same,GI50,[6],8.43 µM (inactive)
same,GI50,[7],7.24 µM (inactive)
same,GI50,[8],43.6 µM (inactive)
same,GI50,[9],40.4 µM (inactive)
same,GI50,[10],5.52 µM (inactive)
same,GI50,[11],5.97 µM
same,GI50,[12],33.2 µM (inactive)
same,GI50,[13],20 µM (inactive)
same,GI50,[14],16.7 µM (inactive)
same,GI50,[15],17.3 µM (inactive)
same,GI50,[16],37.4 µM (inactive)
same,GI50,[17],8.57 µM (inactive)
same,GI50,[18],18.9 µM (inactive)
same,GI50,[19],22.9 µM (inactive)
same,GI50,[20],8.71 µM (inactive)
same,GI50,[21],12.7 µM (inactive)
same,GI50,[22],34.6 µM (inactive)
same,GI50,[23],12.6 µM (inactive)
same,GI50,[24],18.5 µM (inactive)
same,GI50,[25],23.8 µM (inactive)
same,GI50,[26],34.4 µM (inactive)
same,GI50,[27],15.6 µM (inactive)
same,GI50,[28],4.6 µM (inactive)
same,GI50,[29],23.1 µM (inactive)
same,GI50,[30],25.9 µM (inactive)
same,GI50,[31],36.1 µM (inactive)
same,GI50,[32],22.8 µM (inactive)
same,GI50,[33],20 µM (inactive)
same,GI50,[34],19.6 µM (inactive)
same,GI50,[35],23.7 µM (inactive)
same,GI50,[36],13 µM (inactive)
same,GI50,[37],33.7 µM (inactive)
same,GI50,[38],20.7 µM (inactive)
same,GI50,[39],13.3 µM (inactive)
same,GI50,[40],42.7 µM (inactive)
same,GI50,[41],29.9 µM (inactive)
same,GI50,[42],37 µM (inactive)
same,GI50,[43],19.5 µM (inactive)
same,GI50,[44],21.9 µM (inactive)
same,GI50,[45],> 100 µM (inactive)
same,GI50,[46],37.7 µM (inactive)
same,GI50,[47],31 µM (inactive)
same,GI50,[48],12.2 µM (inactive)
same,GI50,[49],22.4 µM (inactive)
same,GI50,[50],6.78 µM (inactive)
same,GI50,[51],24.7 µM (inactive)
same,GI50,[52],20.8 µM (inactive)
CC1=N/C(=C\c2ccc(C)cc2)C(=O)O1,GI50,[53],> 100 µM (inactive)
same,GI50,[4],> 100 µM (inactive)
same,GI50,[5],> 100 µM (inactive)
same,GI50,[6],> 100 µM (inactive)
same,GI50,[9],> 100 µM (inactive)
same,GI50,[11],> 100 µM
same,GI50,[14],> 100 µM (inactive)
same,GI50,[15],> 100 µM (inactive)
same,GI50,[16],> 100 µM (inactive)
same,GI50,[17],> 100 µM (inactive)
same,GI50,[18],> 100 µM (inactive)
same,GI50,[19],> 100 µM (inactive)
same,GI50,[21],> 100 µM (inactive)
same,GI50,[22],> 100 µM (inactive)
same,GI50,[23],> 100 µM (inactive)
same,GI50,[24],> 100 µM (inactive)
same,GI50,[25],> 100 µM (inactive)
same,GI50,[27],> 100 µM (inactive)
same,GI50,[29],> 100 µM (inactive)
same,GI50,[30],> 100 µM (inactive)
same,GI50,[31],> 100 µM (inactive)
same,GI50,[54],> 100 µM (inactive)
same,GI50,[32],> 100 µM (inactive)
same,GI50,[33],> 100 µM (inactive)
same,GI50,[35],> 100 µM (inactive)
same,GI50,[37],> 100 µM (inactive)
same,GI50,[38],> 100 µM (inactive)
same,GI50,[39],> 100 µM (inactive)
same,GI50,[40],> 100 µM (inactive)
same,GI50,[41],> 100 µM (inactive)
same,GI50,[42],> 100 µM (inactive)
same,GI50,[44],> 100 µM (inactive)
same,GI50,[45],> 100 µM (inactive)
same,GI50,[46],> 100 µM (inactive)
same,GI50,[47],> 100 µM (inactive)
same,GI50,[48],> 100 µM (inactive)
same,GI50,[50],> 100 µM (inactive)
same,GI50,[51],> 100 µM (inactive)
same,GI50,[52],> 100 µM (inactive)
O=C(Cl)c1cc([N+](=O)[O-])cc([N+](=O)[O-])c1,GI50,[1],> 100 µM (inactive)
same,GI50,[2],> 100 µM (inactive)
same,GI50,[3],> 100 µM (inactive)
same,GI50,[53],> 100 µM (inactive)
same,GI50,[4],> 100 µM (inactive)
same,GI50,[5],> 100 µM (inactive)
same,GI50,[6],> 100 µM (inactive)
same,GI50,[55],> 100 µM (inactive)
same,GI50,[7],> 100 µM (inactive)
same,GI50,[8],> 100 µM (inactive)
same,GI50,[9],> 100 µM (inactive)
same,GI50,[10],> 100 µM (inactive)
same,GI50,[11],> 100 µM
same,GI50,[12],> 100 µM (inactive)
same,GI50,[13],> 100 µM (inactive)
same,GI50,[14],> 100 µM (inactive)
same,GI50,[15],> 100 µM (inactive)
same,GI50,[16],> 100 µM (inactive)
same,GI50,[17],> 100 µM (inactive)
same,GI50,[19],> 100 µM (inactive)
same,GI50,[20],> 100 µM (inactive)
same,GI50,[21],> 100 µM (inactive)
same,GI50,[22],> 100 µM (inactive)
same,GI50,[23],> 100 µM (inactive)
same,GI50,[24],> 100 µM (inactive)
same,GI50,[25],> 100 µM (inactive)
same,GI50,[26],> 100 µM (inactive)
same,GI50,[27],> 100 µM (inactive)
same,GI50,[28],> 100 µM (inactive)
same,GI50,[29],> 100 µM (inactive)
same,GI50,[31],> 100 µM (inactive)
same,GI50,[54],> 100 µM (inactive)
same,GI50,[56],> 100 µM (inactive)
same,GI50,[34],> 100 µM (inactive)
same,GI50,[35],> 100 µM (inactive)
same,GI50,[36],> 100 µM (inactive)
same,GI50,[37],> 100 µM (inactive)
same,GI50,[38],> 100 µM (inactive)
same,GI50,[39],> 100 µM (inactive)
same,GI50,[40],> 100 µM (inactive)
same,GI50,[42],> 100 µM (inactive)
same,GI50,[43],> 100 µM (inactive)
same,GI50,[44],> 100 µM (inactive)
same,GI50,[45],> 100 µM (inactive)
same,GI50,[46],> 100 µM (inactive)
same,GI50,[47],> 100 µM (inactive)
same,GI50,[48],> 100 µM (inactive)
same,GI50,[49],> 100 µM (inactive)
same,GI50,[50],> 100 µM (inactive)
same,GI50,[51],> 100 µM (inactive)
same,GI50,[52],> 100 µM (inactive)
CCCCCC(=O)N[C@H]1CCc2cc(OC)c(OC)c(OC)c2-c2ccc(SC)c(=O)cc21,GI50,[1],0.0335 µM (active)
same,GI50,[57],0.0172 µM (active)
same,GI50,[2],0.0306 µM (active)
same,GI50,[3],0.0374 µM (active)
same,GI50,[53],0.0914 µM (active)
same,GI50,[4],0.0254 µM (active)
same,GI50,[5],0.0122 µM (active)
same,GI50,[6],< 0.01 µM (active)
same,GI50,[55],< 0.01 µM (active)
same,GI50,[8],0.0395 µM (active)
same,GI50,[9],0.0212 µM (active)
same,GI50,[10],0.02 µM (active)
same,GI50,[11],0.0209 µM
same,GI50,[12],< 0.01 µM (active)
same,GI50,[13],0.032 µM (active)
same,GI50,[14],< 0.01 µM (active)
same,GI50,[15],0.0233 µM (active)
same,GI50,[16],0.0241 µM (active)
same,GI50,[17],< 0.01 µM (active)
same,GI50,[18],0.0154 µM (active)
same,GI50,[19],< 0.01 µM (active)
same,GI50,[21],0.0204 µM (active)
same,GI50,[22],0.016 µM (active)
same,GI50,[23],0.0229 µM (active)
same,GI50,[24],0.0516 µM (active)
same,GI50,[25],0.0106 µM (active)
same,GI50,[26],< 0.01 µM (active)
same,GI50,[27],< 0.01 µM (active)
same,GI50,[28],< 0.01 µM (active)
same,GI50,[30],0.0153 µM (active)
same,GI50,[31],17.5 µM (inactive)
same,GI50,[54],47.3 µM (inactive)
same,GI50,[32],0.0253 µM (active)
same,GI50,[56],0.0181 µM (active)
same,GI50,[34],0.0212 µM (active)
same,GI50,[35],0.0155 µM (active)
same,GI50,[36],0.0158 µM (active)
same,GI50,[37],0.0223 µM (active)
same,GI50,[39],0.014 µM (active)
same,GI50,[40],0.0224 µM (active)
same,GI50,[41],0.0315 µM (active)
same,GI50,[42],0.0258 µM (active)
same,GI50,[43],0.0195 µM (active)
same,GI50,[44],0.00419 µM (active)
same,GI50,[45],0.00421 µM (active)
same,GI50,[46],0.0177 µM (active)
same,GI50,[47],0.521 µM (active)
same,GI50,[48],0.0224 µM (active)
same,GI50,[49],< 0.01 µM (active)
same,GI50,[50],0.0204 µM (active)
same,GI50,[51],0.0308 µM (active)
same,GI50,[52],0.0239 µM (active)
